In ChEMBL document CHEMBL5291721, “A preclinical secondary pharmacology resource illuminates target-adverse drug reaction associations of marketed drugs” (Nat Commun, 2023):

Assays:
[1] = biological target: T1, Alpha-2C adrenergic receptor (Homo sapiens, UniProt P18825); type: functional
T1 sequence (P18825 whole entry): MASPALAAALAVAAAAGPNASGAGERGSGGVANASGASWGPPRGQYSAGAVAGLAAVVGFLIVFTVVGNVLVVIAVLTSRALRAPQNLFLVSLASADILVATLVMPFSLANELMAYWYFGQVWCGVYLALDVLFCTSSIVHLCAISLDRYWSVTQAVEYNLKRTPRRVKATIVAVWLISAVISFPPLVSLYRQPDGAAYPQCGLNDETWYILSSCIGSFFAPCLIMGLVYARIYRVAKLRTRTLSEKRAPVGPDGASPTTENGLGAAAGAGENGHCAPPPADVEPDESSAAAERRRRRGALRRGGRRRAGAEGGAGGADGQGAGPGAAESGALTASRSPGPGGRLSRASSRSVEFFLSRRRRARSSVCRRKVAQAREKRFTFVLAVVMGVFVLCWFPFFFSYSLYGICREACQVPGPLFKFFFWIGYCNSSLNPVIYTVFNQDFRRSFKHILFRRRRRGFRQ

[2] = biological target: Vasopressin V2 receptor (Homo sapiens, UniProt P30518)
Sequence of Vasopressin V2 receptor (P30518 whole entry): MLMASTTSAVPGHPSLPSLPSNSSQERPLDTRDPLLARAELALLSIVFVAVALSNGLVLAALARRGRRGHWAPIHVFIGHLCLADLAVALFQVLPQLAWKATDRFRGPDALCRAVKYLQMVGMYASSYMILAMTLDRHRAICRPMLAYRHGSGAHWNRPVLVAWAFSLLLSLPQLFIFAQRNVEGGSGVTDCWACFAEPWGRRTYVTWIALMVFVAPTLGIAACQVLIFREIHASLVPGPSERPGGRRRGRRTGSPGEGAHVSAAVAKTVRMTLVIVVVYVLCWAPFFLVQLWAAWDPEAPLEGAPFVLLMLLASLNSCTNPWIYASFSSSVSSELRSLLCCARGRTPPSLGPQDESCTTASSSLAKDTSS

[3] = biological target: Growth hormone secretagogue receptor type 1 (Homo sapiens, UniProt Q92847)
Sequence of Growth hormone secretagogue receptor type 1 (Q92847 whole entry): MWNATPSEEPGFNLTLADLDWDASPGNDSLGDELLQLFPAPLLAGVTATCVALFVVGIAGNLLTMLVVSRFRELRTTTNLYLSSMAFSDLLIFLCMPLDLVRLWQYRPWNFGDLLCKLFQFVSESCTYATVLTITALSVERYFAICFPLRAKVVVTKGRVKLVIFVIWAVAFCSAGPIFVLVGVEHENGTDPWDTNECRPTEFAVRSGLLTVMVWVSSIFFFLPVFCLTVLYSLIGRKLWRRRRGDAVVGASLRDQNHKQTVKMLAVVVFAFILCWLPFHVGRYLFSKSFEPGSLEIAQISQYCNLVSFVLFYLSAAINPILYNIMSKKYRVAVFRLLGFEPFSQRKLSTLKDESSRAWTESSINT

[4] = biological target: 5-hydroxytryptamine receptor 2B (Homo sapiens, UniProt P41595); type: functional, cell-based
Sequence of 5-hydroxytryptamine receptor 2B (P41595 whole entry): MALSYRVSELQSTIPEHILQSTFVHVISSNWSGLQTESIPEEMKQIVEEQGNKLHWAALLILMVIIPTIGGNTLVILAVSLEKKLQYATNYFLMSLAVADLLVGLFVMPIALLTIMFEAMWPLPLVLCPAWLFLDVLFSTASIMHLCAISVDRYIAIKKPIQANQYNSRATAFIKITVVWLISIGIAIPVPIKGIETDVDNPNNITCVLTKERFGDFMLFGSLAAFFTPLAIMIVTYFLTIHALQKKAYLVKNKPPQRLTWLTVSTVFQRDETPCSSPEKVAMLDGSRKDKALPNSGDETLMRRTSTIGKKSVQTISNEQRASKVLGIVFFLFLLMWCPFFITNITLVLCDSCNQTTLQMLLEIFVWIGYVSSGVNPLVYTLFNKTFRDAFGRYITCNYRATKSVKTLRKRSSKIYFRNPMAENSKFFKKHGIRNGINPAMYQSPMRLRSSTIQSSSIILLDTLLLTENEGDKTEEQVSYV

[5] = biological target: T2, Neuropeptide Y receptor type 1 (Homo sapiens, UniProt P25929)
T2 sequence (P25929 whole entry): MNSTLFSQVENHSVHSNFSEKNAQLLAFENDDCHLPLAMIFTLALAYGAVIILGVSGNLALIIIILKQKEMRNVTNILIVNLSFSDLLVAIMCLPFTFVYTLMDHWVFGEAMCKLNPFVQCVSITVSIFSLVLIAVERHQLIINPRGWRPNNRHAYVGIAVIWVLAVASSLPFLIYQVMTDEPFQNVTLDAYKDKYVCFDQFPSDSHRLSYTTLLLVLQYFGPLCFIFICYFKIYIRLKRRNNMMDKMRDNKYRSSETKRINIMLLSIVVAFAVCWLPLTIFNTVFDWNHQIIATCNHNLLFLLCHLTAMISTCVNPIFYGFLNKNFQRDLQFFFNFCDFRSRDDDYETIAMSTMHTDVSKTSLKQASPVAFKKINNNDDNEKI

[6] = biological target: T3, Glucocorticoid receptor (Homo sapiens, UniProt P04150)
T3 sequence (P04150 whole entry): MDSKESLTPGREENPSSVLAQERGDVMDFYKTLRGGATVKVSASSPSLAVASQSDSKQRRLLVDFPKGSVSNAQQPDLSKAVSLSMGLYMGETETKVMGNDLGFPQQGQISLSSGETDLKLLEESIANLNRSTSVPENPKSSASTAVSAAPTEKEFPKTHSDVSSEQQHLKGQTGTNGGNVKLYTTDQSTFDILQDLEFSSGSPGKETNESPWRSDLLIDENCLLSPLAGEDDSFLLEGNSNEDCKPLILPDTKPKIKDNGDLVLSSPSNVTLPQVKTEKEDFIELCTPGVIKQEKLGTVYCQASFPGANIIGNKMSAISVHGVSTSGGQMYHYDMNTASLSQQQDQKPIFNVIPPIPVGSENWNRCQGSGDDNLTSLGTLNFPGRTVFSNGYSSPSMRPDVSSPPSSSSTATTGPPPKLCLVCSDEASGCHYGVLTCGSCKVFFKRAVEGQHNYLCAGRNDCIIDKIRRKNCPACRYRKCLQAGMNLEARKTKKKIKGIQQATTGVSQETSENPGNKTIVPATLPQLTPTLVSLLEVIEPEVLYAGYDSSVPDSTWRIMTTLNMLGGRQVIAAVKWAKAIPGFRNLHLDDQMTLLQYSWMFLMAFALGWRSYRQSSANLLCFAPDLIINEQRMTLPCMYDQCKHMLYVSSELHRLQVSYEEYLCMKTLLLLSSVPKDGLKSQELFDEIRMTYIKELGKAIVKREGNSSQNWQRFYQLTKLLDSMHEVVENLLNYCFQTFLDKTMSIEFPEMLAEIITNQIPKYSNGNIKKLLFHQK

[7] = biological target: Kappa-type opioid receptor (Homo sapiens, UniProt P41145)
Sequence of Kappa-type opioid receptor (P41145 whole entry): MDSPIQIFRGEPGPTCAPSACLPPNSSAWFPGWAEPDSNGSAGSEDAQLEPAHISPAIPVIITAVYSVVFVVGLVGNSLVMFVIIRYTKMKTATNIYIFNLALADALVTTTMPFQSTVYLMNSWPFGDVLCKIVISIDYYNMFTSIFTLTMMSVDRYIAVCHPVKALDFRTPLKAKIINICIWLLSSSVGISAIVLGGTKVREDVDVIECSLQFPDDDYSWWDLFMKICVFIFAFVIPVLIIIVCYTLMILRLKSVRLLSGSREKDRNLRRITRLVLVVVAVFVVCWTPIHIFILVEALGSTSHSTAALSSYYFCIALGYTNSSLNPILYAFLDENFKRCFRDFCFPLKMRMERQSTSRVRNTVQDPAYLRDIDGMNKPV

[8] = biological target: T4, Progesterone receptor (Homo sapiens, UniProt P06401); type: functional
T4 sequence (P06401 whole entry): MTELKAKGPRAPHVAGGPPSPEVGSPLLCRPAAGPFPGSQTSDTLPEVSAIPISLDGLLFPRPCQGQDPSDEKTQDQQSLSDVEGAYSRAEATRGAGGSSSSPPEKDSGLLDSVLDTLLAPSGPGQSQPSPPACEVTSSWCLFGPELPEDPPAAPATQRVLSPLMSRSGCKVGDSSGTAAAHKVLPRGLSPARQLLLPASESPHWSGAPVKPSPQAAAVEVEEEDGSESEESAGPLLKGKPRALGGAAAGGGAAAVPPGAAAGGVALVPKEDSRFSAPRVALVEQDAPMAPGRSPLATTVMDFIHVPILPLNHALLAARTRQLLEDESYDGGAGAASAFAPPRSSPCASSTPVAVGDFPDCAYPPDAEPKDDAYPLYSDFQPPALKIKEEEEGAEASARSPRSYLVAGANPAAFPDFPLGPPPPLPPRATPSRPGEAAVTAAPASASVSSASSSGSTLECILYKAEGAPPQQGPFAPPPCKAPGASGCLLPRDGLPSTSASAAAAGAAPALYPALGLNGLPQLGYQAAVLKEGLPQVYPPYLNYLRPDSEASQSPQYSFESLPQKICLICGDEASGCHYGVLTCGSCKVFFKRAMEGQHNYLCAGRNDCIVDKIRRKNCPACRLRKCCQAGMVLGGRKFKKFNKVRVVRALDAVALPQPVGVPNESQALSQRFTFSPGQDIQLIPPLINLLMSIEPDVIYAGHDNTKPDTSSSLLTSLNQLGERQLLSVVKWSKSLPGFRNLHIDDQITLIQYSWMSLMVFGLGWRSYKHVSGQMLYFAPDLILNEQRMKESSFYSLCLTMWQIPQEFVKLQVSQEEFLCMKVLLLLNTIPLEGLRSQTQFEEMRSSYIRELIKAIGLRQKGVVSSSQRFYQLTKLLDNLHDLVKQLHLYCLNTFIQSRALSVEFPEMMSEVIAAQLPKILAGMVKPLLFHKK

[9] = biological target: Sodium-dependent noradrenaline transporter (Homo sapiens, UniProt P23975)
Sequence of Sodium-dependent noradrenaline transporter (P23975 whole entry): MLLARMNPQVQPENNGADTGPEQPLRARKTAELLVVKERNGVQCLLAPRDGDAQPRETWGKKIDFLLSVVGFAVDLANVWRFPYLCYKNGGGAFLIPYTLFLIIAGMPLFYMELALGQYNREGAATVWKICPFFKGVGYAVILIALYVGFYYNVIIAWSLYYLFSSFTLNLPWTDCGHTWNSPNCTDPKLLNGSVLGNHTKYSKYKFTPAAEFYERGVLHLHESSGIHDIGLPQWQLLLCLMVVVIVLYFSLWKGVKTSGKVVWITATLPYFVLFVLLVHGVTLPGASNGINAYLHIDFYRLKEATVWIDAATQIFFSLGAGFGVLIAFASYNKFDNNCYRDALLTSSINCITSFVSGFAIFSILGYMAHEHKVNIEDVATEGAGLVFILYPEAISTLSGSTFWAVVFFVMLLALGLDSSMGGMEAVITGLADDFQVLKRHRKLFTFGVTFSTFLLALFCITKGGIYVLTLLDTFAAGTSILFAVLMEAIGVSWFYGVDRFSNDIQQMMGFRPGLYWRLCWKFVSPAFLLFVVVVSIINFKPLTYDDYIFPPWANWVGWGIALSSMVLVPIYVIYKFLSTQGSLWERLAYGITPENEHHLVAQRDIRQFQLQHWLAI

[10] = biological target: cGMP-inhibited 3',5'-cyclic phosphodiesterase 3A (Homo sapiens, UniProt Q14432); type: functional
Sequence of cGMP-inhibited 3',5'-cyclic phosphodiesterase 3A (Q14432 whole entry): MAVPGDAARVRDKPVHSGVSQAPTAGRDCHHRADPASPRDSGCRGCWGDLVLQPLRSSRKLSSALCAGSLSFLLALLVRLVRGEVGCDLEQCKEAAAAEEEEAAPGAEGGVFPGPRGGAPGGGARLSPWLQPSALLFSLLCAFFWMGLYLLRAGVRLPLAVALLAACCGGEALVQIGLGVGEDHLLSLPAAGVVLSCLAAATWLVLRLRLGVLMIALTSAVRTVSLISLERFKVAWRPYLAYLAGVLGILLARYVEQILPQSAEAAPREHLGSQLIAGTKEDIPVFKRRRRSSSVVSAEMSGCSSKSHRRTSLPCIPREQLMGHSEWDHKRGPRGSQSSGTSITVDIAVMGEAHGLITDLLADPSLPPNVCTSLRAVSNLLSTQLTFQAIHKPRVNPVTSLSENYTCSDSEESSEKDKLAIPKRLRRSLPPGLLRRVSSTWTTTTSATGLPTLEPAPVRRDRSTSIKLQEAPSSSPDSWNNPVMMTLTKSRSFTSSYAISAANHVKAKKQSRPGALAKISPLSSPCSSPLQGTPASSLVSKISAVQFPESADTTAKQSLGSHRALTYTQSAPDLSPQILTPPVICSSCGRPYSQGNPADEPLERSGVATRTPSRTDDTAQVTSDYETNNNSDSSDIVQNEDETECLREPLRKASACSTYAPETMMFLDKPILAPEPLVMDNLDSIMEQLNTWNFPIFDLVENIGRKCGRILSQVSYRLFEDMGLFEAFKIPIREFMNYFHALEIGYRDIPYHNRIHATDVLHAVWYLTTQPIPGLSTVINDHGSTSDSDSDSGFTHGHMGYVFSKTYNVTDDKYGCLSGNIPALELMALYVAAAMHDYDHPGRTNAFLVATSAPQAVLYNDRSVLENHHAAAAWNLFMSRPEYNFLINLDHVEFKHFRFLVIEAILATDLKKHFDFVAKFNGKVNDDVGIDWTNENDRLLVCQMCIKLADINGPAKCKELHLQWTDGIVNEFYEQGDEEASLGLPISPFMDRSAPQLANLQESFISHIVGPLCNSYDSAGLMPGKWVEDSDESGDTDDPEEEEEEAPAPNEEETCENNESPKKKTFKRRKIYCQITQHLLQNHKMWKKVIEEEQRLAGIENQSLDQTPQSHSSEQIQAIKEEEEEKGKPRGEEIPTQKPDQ

Measured: AC50
Note: assay procedure not described here.

NNC(=O)c1ccncc1 [ISONIAZID]
> 30 µM: [1] | [2] | [3] | [4] | [5] | [6] | [7] | [8] | [9] | [10]

COc1ccc(CN2CCN(C(c3ccc(F)cc3)c3ccc(F)cc3)CC2)c(OC)c1OC [LOMERIZINE]
18 µM: [9]
12 µM: [7]
4.2 µM: [1]
27 µM: [3]
> 30 µM: [2] | [4] | [5] | [6] | [8] | [10]

CN1CCN=C(c2ccccc2)c2cc(Cl)ccc21 [MEDAZEPAM]
> 30 µM: [1] | [2] | [3] | [4] | [5] | [6] | [8] | [9] | [10]
0.99 µM: [7]

CC(=O)[C@H]1CC[C@H]2[C@@H]3C[C@H](C)C4=CC(=O)CC[C@]4(C)[C@H]3[C@@H](O)C[C@]12C [MEDRYSONE]
0.005 µM: [6]
> 10 µM: [1] | [2] | [3] | [4] | [5] | [7] | [9]
> 30 µM: [10]
0.0027 µM: [8]

CCCC(C)(COC(N)=O)COC(N)=O [MEPROBAMATE]
> 30 µM: [1] | [10]
> 10 µM: [2] | [3] | [4] | [5] | [6] | [7] | [8] | [9]

COc1ccc2cc(CCC(C)=O)ccc2c1 [NABUMETONE]
> 10 µM: [2] | [3] | [4] | [5] | [6] | [7] | [8]
> 30 µM: [1] | [10]
20 µM: [9]

O=C(NCCO[N+](=O)[O-])c1cccnc1 [NICORANDIL]
> 30 µM: [1] | [2] | [3] | [4] | [5] | [6] | [7] | [8] | [9] | [10]

O=C(c1cc(Cc2n[nH]c(=O)c3ccccc23)ccc1F)N1CCN(C(=O)C2CC2)CC1 [OLAPARIB]
> 30 µM: [2] | [3] | [5] | [6] | [8] | [9]
24 µM: [10]
> 10 µM: [1] | [4] | [7]
